For data set [1], the system named is SH-SY5Y cells. Kind of data set: SH-SY5Y cell viability based on cellular ATP levels (luciferin-luciferase). More on the design: species or system human. The following applies: 24 h. The protocol:
The SH-SY5Y cell line (neuroblastoma, human; ATCC: CRL-2266) was maintained in DMEM supplemented with 10% FBS, penicillin (100 U/mL) and streptomycin (100 µg/mL) and incubated at 37 °C in a humidified environment with 5% CO2. Cells were trypsinized then transferred to 96-well plates (10^4 cells/well). Next day, the medium has been replaced and cells were treated for 24 h with CPZ (0–100 μM), with CDs (0–1500 μM), or with the combinations of CPZ and CDs (final volume: 200 μL/well). After 24 h treatment of cells with CPZ and/or CDs, cells were washed three times with 200 μL of PBS (pH 7.4; also containing 0.18 g/L CaCl2, and 0.2 g/L MgCl2). Since cell death results in the detachment of cells from the plate, these floating cells and cell debris were removed from the well during these washing steps. Cells were lysed with 200 μL of borate buffer (0.2 M, pH 9.2) containing Triton X-100 (0.1%) detergent and ethylenediaminetetraacetic acid (EDTA, 20 mM), then the plate was placed in a shaker for 5 min. These lysates were applied in cellular ATP and total protein analyses.
The changes in cell viability were primarily evaluated based on ATP levels. ATP content is an indicator of metabolically active cells; therefore, cellular ATP concentration is a suitable parameter to assess the number of viable cells. ATP levels were quantified based on the luciferin-luciferase reaction adapted for microplate method, as has been described earlier. To quantify cellular ATP concentrations, a 10 μL/well volume of lysates was transferred into white 96-well optical plates (VWR, Debrecen, Hungary), after which 100 μL/well of the dissolved ATP reagent was added. Luminescence data of ATP standards and samples were measured with 5 s integration time, employing an Enspire Multimode reader (Perkin Elmer, Waltham, MA, US).
IC50 values were determined by sigmoidal fitting (Hill1) employing the Origin software (OriginLab Corporation, Northampton, MA, US). Statistical analyses were performed employing one-way ANOVA (with Tukey post hoc) test using the IBM SPSS Statistics software (Armonk, NY, US), where the level of significance was set as p < 0.01.

The subject of another data set is NMRI mice. The experiment in a line: in vivo. It is filed as in vivo. The following applies: typically. The protocol: (§1) Female NMRI mice weighing 25–35 g were used for the experiments. Animals were kept in the Laboratory Animal House of the Department of Pharmacology and Pharmacotherapy (University of Pécs) under standard pathogen-free conditions, and were provided with food pellets and water ad libitum. Mice were weighed then treated intraperitoneally (i.p.) with CPZ (120–300 mg/kg, 10 mL/kg, dissolved in physiological saline). Since CPZ typically provoked convulsions after 2 min, SBECD or SGD (500 or 2000 mg/kg, 10 mL/kg, dissolved in physiological saline) was administered i.v. immediately after the CPZ treatment. Control animals were treated with physiological saline (10 mL/kg i.p. and/or i.v.). Before and after the treatment, mice could consume feed and water ad libitum.
(§2) We decided to administer CPZ intraperitoneally because it leads to the more rapid appearance of the drug in the systemic circulation compared to the per os treatment. […] However, we applied CDs (SBECD or SGD) intravenously to produce immediately their high plasma concentrations as well as to avoid any potential local interactions of CDs with CPZ in the abdominal cavity.
(§3) In agreement with the 3Rs, the up-and-down method was used. One animal is treated at a time, starting around the LD50 value estimated. If the animal survived, then the following animal was treated with a higher dose. If the animal died, then the following animal was treated with a lower dose. This method provides a good estimation of LD50, while the number of animals sacrificed can be minimized. LD50 values were determined with the Probit Analysis (CI = 95%) as has been reported.

A short description of a further data set: in vivo. In kind it is in vivo, mice. The following applies: female, NMRI, mouse, in vivo, female NMRI mice, read-out: LD50 (based on 24 h mortality). How it is done:
as §1, §2, §3

Data set [2] has as its system several different cell lines. More on the design: method as in PMID 4801078, PMID 6896707, PMID 23689352. The following applies: cited from earlier work.
For the next data set, the system named is mice. More on the design: method as in PMID 5630492, PMID 13813939. The following applies: cited from earlier work.
Data set [3] deals with SH-SY5Y cells. The experiment in a line: SH-SY5Y cell viability based on total protein levels (fluorescamine). The following applies: 24 h. More on the design: species or system human. How it is done: The SH-SY5Y cell line (neuroblastoma, human; ATCC: CRL-2266) was maintained in DMEM supplemented with 10% FBS, penicillin (100 U/mL) and streptomycin (100 µg/mL) and incubated at 37 °C in a humidified environment with 5% CO2. Cells were trypsinized then transferred to 96-well plates (10^4 cells/well). Next day, the medium has been replaced and cells were treated for 24 h with CPZ (0–100 μM), with CDs (0–1500 μM), or with the combinations of CPZ and CDs (final volume: 200 μL/well). After 24 h treatment of cells with CPZ and/or CDs, cells were washed three times with 200 μL of PBS (pH 7.4; also containing 0.18 g/L CaCl2, and 0.2 g/L MgCl2). […]
Since certain compounds can modify cellular ATP levels (which can disrupt the correlation of ATP concentration with the number of living cells), total protein measurements were also performed to confirm the ATP-based results. Total protein levels were determined with fluorescamine (Fluram) reagent, as has been previously reported. […] After homogenization, the fluorescence signals of these samples were determined with Enspire Multimode plate reader (PerkinElmer) employing 385 nm and 490 nm as excitation and emission wavelengths, respectively. Total protein concentrations were determined based on bovine serum albumin calibration curve. […]

On the set-up of data set [4]: method as in PMID 16553456. The settings on record: in regard to cholesterol; cited from earlier work.
The next data set deals with HeLa cells. More on the design: method as in PMID 36031178. The settings on record: cited from earlier work.
The conditions of data set [5]: veratridine toxin–CD complexes; cited from earlier work.
On the set-up of data set [6]: method as in PMID 32376444. The settings on record: CPZ complex, cited from earlier work.
Details of data set [7]: method as in PMID 31726616, PMID 36031178. The following applies: complexes with zearalenone; cited from earlier work.
Setting [8] is: Homo sapiens, SH-SY5Y cells, sigmoidal fitting.

This is an account of results in PMC9504268, “Testing the Protective Effects of Sulfobutylether-Βeta-Cyclodextrin (SBECD) and Sugammadex against Chlorpromazine-Induced Acute Toxicity in SH-SY5Y Cell Line and in NMRI Mice” (Pharmaceutics, 2022).

Where a name gives a salt, the structure may show the parent alone. Read-outs that look alike come from different tables or passages of the source.

In the case of `CN(C)CCCN1c2ccccc2Sc2ccc(Cl)cc21` [CPZ, Chlorpromazine hydrochloride], the “concentration showing close the maximal toxicity” value in the data set on SH-SY5Y cells [1] (0–100 μM tested) came to 50 µM. For the same compound, in the data set on SH-SY5Y cells [1] (0–100 μM tested), the “lowest concentration causing statistically significant (p < 0.01) decrease of ATP and total protein levels/well” value is 5 µM. Further, the “decrease in ATP levels” value in the data set on SH-SY5Y cells [1] (20 μM CPZ) is given as “approximately 60%”. Besides, the IC50 (commonly the concentration that gives 50% inhibition) with SH-SY5Y cells [1] (setting [8]) worked out at 16 µM; with SH-SY5Y cells [3] (setting [8]), 15.1 µM. Further, the “time after which CPZ provoked convulsions” value with NMRI mice (CPZ i.p. 120–300 mg/kg) turned out to be 2 min. Also, the “time in which CPZ caused its lethal impact” value with NMRI mice (CPZ i.p., with a few exceptions) is listed as no more than 2 h. Besides, the LD50 (as a rule, the dose expected to kill half of the subjects tested) in the data set “in vivo” (500 mg/kg, CPZ i.p. + 500 mg/kg SBECD i.v.) turned out to be 206 mg/kg; in the data set “in vivo” (500 mg/kg, CPZ i.p. + 500 mg/kg SGD i.v.), 200 mg/kg; in “in vivo” (2000 mg/kg, CPZ i.p. + 2000 mg/kg SBECD i.v.), 233 mg/kg; in the data set “in vivo” (2000 mg/kg, CPZ i.p. + 2000 mg/kg SGD i.v.), 172 mg/kg; in the data set “in vivo” (CPZ i.p., control (physiological saline i.v.)), 194 mg/kg. Besides, the “concentration range of significant toxic effects” value in [2] was 10 to 60 µM. Moreover, the “i.p. LD50” value with mice was 150 to 220 mg/kg. For the same compound, the “decrease in total protein levels” value in the data set with SH-SY5Y cells [3] (20 μM CPZ) is given as “approximately 60%”.
Take `CC(O)COC[C@H]1O[C@@H]2O[C@H]3[C@H](O)[C@@H](O)[C@@H](O[C@H]4[C@H](O)[C@@H](O)[C@@H](O[C@H]5[C@H](O)[C@@H](O)[C@@H](O[C@H]6[C@H](O)[C@@H](O)[C@@H](O[C@H]7[C@H](O)[C@@H](O)[C@@H](O[C@H]8[C@H](O)[C@@H](O)[C@@H](O[C@H]1[C@H](O)[C@H]2O)O[C@@H]8COCC(C)O)O[C@@H]7COCC(C)O)O[C@@H]6COCC(C)O)O[C@@H]5COCC(C)O)O[C@@H]4COCC(C)O)O[C@@H]3COCC(C)O` (stereo partly drawn) [HPBCD, hydroxypropyl-β-CD]: in data set [4], the binding constant is 20000 L/mol.
As to `OC[C@H]1O[C@@H]2O[C@H]3[C@H](O)[C@@H](O)[C@@H](O[C@H]4[C@H](O)[C@@H](O)[C@@H](O[C@H]5[C@H](O)[C@@H](O)[C@@H](O[C@H]6[C@H](O)[C@@H](O)[C@@H](O[C@H]7[C@H](O)[C@@H](O)[C@@H](O[C@H]8[C@H](O)[C@@H](O)[C@@H](O[C@H]1[C@H](O)[C@H]2O)O[C@@H]8CO)O[C@@H]7CO)O[C@@H]6CO)O[C@@H]5CO)O[C@@H]4CO)O[C@@H]3CO` [β-CD], the “effect on alternariol-induced cytotoxicity” value with HeLa cells is on record as “did not affect”.
Take `OC[C@H]1O[C@@H]2O[C@H]3[C@H](O)[C@@H](O)[C@@H](O[C@H]4[C@H](O)[C@@H](O)[C@@H](O[C@H]5[C@H](O)[C@@H](O)[C@@H](O[C@H]6[C@H](O)[C@@H](O)[C@@H](O[C@H]7[C@H](O)[C@@H](O)[C@@H](O[C@H]8[C@H](O)[C@@H](O)[C@@H](O[C@H]9[C@H](O)[C@@H](O)[C@@H](O[C@H]1[C@H](O)[C@H]2O)O[C@@H]9CO)O[C@@H]8CO)O[C@@H]7CO)O[C@@H]6CO)O[C@@H]5CO)O[C@@H]4CO)O[C@@H]3CO` [γ-CD]: the “binding constant (K)” value in data set [5] was “approximately 10^4 L/mol”. Also, the “binding constant (K), 1:1 complexes” value in data set [6] (1:1) is 500 L/mol. Besides, the “binding constant (K), 1:2 complexes” value in data set [6] (1:2) was 6000 L/mol.
As to dimethyl-β-CD, in data set [4], the binding constant was 600000 L/mol.
For the compound methyl-β-CD, in [7], the binding constant is 10000 to 50000 L/mol.
In the case of succinyl–methyl-β-CD, in data set [7], the binding constant is 10000 to 50000 L/mol.
